Results: US6630505B2, “Aminopyrrolidine sulfonamides as serine protease inhibitors” (Ortho-McNeil Pharmaceutical, Inc., priority 2001, dated 2003)

biological target: T1, human Factor Xa (Homo sapiens, UniProt P00742); experiment: Factor Xa inhibition, enzyme-catalyzed hydrolysis assay (chromogenic substrate); assay type: biochemical; settings: 5.7 nM Factor Xa, 30-700 μM substrate, pH 8.4, 37° C.
T1 construct: commercial human Factor Xa (American Diagnostica); purchased American Diagnostica
Protocol: Enzyme-catalyzed hydrolysis rates were measured spectrophotometrically using commercial human Factor Xa (American Diagnostica), the chromogenic substrate (Meo—CO—D—CHG—Gly—Arg—pNa (American Diagnostica); in aqueous buffer (50 mM Trisma Base, 0.1% Tween 80, pH 8.4), and a microplate reader (Molecular Devices). Changes in absorbance at 405 nm were monitored using the software program Softmax (Molecular Devices), upon addition of enzyme, with and without inhibitor present at 37° C. for 30 minutes. The IC50 values were determined by fixing the enzyme and substrate concentrations (5.7 nM Factor Xa, 500 μM Factor Xa substrate) and varying the inhibitor concentration. Percent inhibition was calculated by comparing the initial reaction slopes of the without inhibitor samples to those with inhibitor. Inhibition constants (Ki) were determined by fixing the enzyme concentrations (5.7 nM Factor Xa) and inhibitor concentration and varying the substrate concentrations (30-700 μM Factor Xa substrate. Michaelis-Menton kinetics were applied to the initial reaction slopes using the program Kcat (Bio Metallics Inc.).

T1 sequence (P00742 235-488 limits assumed): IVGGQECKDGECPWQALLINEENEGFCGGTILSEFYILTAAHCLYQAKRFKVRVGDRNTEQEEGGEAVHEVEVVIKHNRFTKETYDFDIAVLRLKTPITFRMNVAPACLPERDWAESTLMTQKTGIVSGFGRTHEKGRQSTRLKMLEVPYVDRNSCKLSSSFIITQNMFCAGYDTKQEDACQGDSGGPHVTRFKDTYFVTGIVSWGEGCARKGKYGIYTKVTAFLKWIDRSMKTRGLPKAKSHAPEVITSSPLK
T1 sequence (P00742 41-179 partner limits assumed): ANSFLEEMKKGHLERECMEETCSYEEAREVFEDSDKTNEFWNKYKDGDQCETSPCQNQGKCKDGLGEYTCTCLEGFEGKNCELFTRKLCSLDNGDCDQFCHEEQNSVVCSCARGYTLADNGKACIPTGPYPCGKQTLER

| Compound | Ki |
| --- | --- |
| NC(N)=Nc1ccc(C(=O)N(Cc2ccccc2)C2CCN(S(=O)(=O)/C=C/c3ccc(Cl)cc3)C2)cc1 (stereo not shown) [Compound 1, N-[1-[[(E)-2-(4-chlorophenyl)ethenyl]sulfonyl]-3-pyrrolidinyl]-4-[(diaminomethylene)amino]-N-(phenylmethyl)-benzamide] | 1600 nM |
| NC(N)=Nc1ccc(C(=O)N(Cc2cccc(OCC(=O)O)c2)C2CCN(S(=O)(=O)/C=C/c3ccc(Cl)cc3)C2)cc1 (stereo not shown) [Compound 11, [3-[[[1-[[(E)-2-(4-chlorophenyl)ethenyl]sulfonyl]-3-pyrrolidinyl][4-[(diaminomethylene)amino]benzoyl]amino]methyl]phenoxy]-acetic acid] | 600 nM |
| COC(=O)c1ccc(CN(C(=O)c2ccc(N=C(N)N)cc2)C2CCN(S(=O)(=O)/C=C/c3ccc(Cl)cc3)C2)cc1 (stereo not shown) [Compound 3, 4-[[[1-[[(E)-2-(4-chlorophenyl)ethenyl]sulfonyl]-3-pyrrolidinyl][4-[(diaminomethylene)amino]benzoyl]amino]methyl]-benzoic acid methyl ester] | 400 nM |
| NC(N)=Nc1ccc(C(=O)N(Cc2cccc(C(=O)O)c2)C2CCN(S(=O)(=O)/C=C/c3ccc(Cl)cc3)C2)cc1 (stereo not shown) [Compound 6, 3-[[[1-[[(E)-2-(4-chlorophenyl)ethenyl]sulfonyl]-3-pyrrolidinyl][4-[(diaminomethylene)amino]benzoyl]amino]methyl]-benzoic acid] | 600 nM |
| NC(N)=Nc1ccc(C(=O)N2CCC(N(Cc3ccc(OCc4ccccc4)cc3)S(=O)(=O)/C=C/c3ccc(Cl)cc3)C2)cc1 (stereo not shown) [Compound 17, 2-(4-chlorophenyl)-N-[1-[4-[(diaminomethylene)amino]benzoyl]-3-pyrrolidinyl]-N-[[4-(phenylmethoxy)phenyl]methyl]-(E)-ethenesulfonamide] | 4400 nM |
| COC(=O)COc1cccc(CN(C(=O)c2ccc(N=C(N)N)cc2)C2CCN(S(=O)(=O)/C=C/c3ccc(Cl)cc3)C2)c1 (stereo not shown) [Compound 8, [3-[[[1-[[(E)-2-(4-chlorophenyl)ethenyl]sulfonyl]-3-pyrrolidinyl][4-[(diaminomethylene)amino]benzoyl]amino]methyl]phenoxy]-acetic acid methyl ester] | 1100 nM |
| COC(=O)c1cccc(CN(C(=O)c2ccc(N=C(N)N)cc2)C2CCN(S(=O)(=O)/C=C/c3ccc(Cl)cc3)C2)c1 (stereo not shown) [Compound 4, 3-[[[1-[[(E)-2-(4-chlorophenyl)ethenyl]sulfonyl]-3-pyrrolidinyl][4-[(diaminomethylene)amino]benzoyl]amino]methyl]-benzoic acid methyl ester] | 7700 nM |
| COc1ccc2ccc(S(=O)(=O)N(Cc3ccccc3)C3CCN(C(=O)c4ccc(N=C(N)N)cc4)C3)cc2c1 (stereo not shown) [Compound 23, N-[1-[4-[(diaminomethylene)amino]benzoyl]-3-pyrrolidinyl]-7-methoxy-N-(phenylmethyl)-2-naphthalenesulfonamide] | 21000 nM |
| NC(=O)c1cccc(CN(C(=O)c2ccc(N=C(N)N)cc2)C2CCN(S(=O)(=O)/C=C/c3ccc(Cl)cc3)C2)c1 (stereo not shown) [Compound 15, 3-[[[1-[[(E)-2-(4-chlorophenyl)ethenyl]sulfonyl]-3-pyrrolidinyl][4-[(diaminomethylene)amino]benzoyl]amino]methyl]-benzamide] | 600 nM |
| COC(=O)c1ccc(CN(C2CCN(C(=O)c3ccc(N=C(N)N)cc3)C2)S(=O)(=O)/C=C/c2ccc(Cl)cc2)cc1 (stereo not shown) [Compound 22, 4-[[[[(E)-2-(4-chlorophenyl)ethenyl]sulfonyl][1-[4-[(diaminomethylene)amino]benzoyl]-3-pyrrolidinyl]amino]methyl]-benzoic acid methyl ester] | 7100 nM |

Now from value to compound:

| Ki | Compound |
| --- | --- |
| 400 nM | NC(N)=Nc1ccc(C(=O)N(Cc2ccc(C(=O)NCC(=O)O)cc2)C2CCN(S(=O)(=O)/C=C/c3ccc(Cl)cc3)C2)cc1 (stereo not shown) [Compound 12, [[4-[[[1-[[(E)-2-(4-chlorophenyl)ethenyl]sulfonyl]-3-pyrrolidinyl][4-[(diaminomethylene)amino]benzoyl]amino]methyl]benzoyl]-amino]-acetic acid] |
| 200 nM | NC(N)=Nc1ccc(C(=O)N(Cc2ccc(C(=O)O)cc2)C2CCN(S(=O)(=O)/C=C/c3ccc(Cl)cc3)C2)cc1 (stereo not shown) [Compound 5, 4-[[[1-[[(E)-2-(4-chlorophenyl)ethenyl]sulfonyl]-3-pyrrolidinyl][4-[(diaminomethylene)amino]benzoyl]amino]methyl]-benzoic acid] |
| 200 nM | COC(=O)CNC(=O)c1cccc(CN(C(=O)c2ccc(N=C(N)N)cc2)C2CCN(S(=O)(=O)/C=C/c3ccc(Cl)cc3)C2)c1 (stereo not shown) [Compound 13, [[3-[[[1-[[(E)-2-(4-chlorophenyl)ethenyl]sulfonyl]-3-pyrrolidinyl][4-[(diaminomethylene)amino]benzoyl]amino]methyl]benzoyl]amino]-acetic acid methyl ester] |
| 300 nM | NC(=O)c1ccc(CN(C(=O)c2ccc(N=C(N)N)cc2)C2CCN(S(=O)(=O)/C=C/c3ccc(Cl)cc3)C2)cc1 (stereo not shown) [Compound 9, N-[[4-(aminocarbonyl)phenyl]methyl]-N-[1-[[(E)-2-(4-chlorophenyl)ethenyl]sulfonyl]-3-pyrrolidinyl]-4-[(diaminomethylene)amino]-benzamide] |
| 300 nM | NC(N)=Nc1ccc(C(=O)N(Cc2cccc(C(=O)NCC(=O)O)c2)C2CCN(S(=O)(=O)/C=C/c3ccc(Cl)cc3)C2)cc1 (stereo not shown) [Compound 14, [[3-[[[1-[[(E)-2-(4-chlorophenyl)ethenyl]sulfonyl]-3-pyrrolidinyl][4-[(diaminomethylene)amino]benzoyl]amino]methyl]benzoyl]amino]-acetic acid] |
| 100 nM | 4-[(aminoiminomethyl)amino]-N-(2-benzofuranylmethyl)-N-[1-[[(E)-2-(4-chlorophenyl)ethenyl]sulfonyl]-3-pyrrolidinyl]-benzamide [Compound 27] |
| 200 nM | COC(=O)CNC(=O)c1ccc(CN(C(=O)c2ccc(N=C(N)N)cc2)C2CCN(S(=O)(=O)/C=C/c3ccc(Cl)cc3)C2)cc1 (stereo not shown) [Compound 10, [[4-[[[1-[[(E)-2-(4-chlorophenyl)ethenyl]sulfonyl]-3-pyrrolidinyl][4-[(diaminomethylene)amino]benzoyl]amino]methyl]benzoyl]amino]-acetic acid methyl ester] |
| 300 nM | NC(N)=Nc1ccc(C(=O)N(Cc2ccc(O)cc2)C2CCN(S(=O)(=O)/C=C/c3ccc(Cl)cc3)C2)cc1 (stereo not shown) [Compound 2, N-[1-[[(E)-2-(4-chlorophenyl)ethenyl]sulfonyl]-3-pyrrolidinyl]-4-[(diaminomethylene)amino]-N-[(4-hydroxyphenyl)methyl]-benzamide] |

biological target: T2, human Lung Tryptase; experiment: Tryptase inhibition, chromogenic peptide substrate hydrolysis assay; assay type: biochemical; settings: 1.0 nM tryptase, 500 μM N-p-Tosyl-GLY-PRO-LYS-pNA, 37° C.
T2 construct: 1.0 nM human Lung Tryptase
Protocol: The rate of increase in absorbance at 405 nm due to hydrolysis of synthetic chromogenic peptide substrates ([S]: 500 μM N-p-Tosyl-GLY-PRO-LYS-pNA; Sigma T-6140) is measured in the presence and absence of inhibitors (I) with a microplate reader at 37° C. The enzyme reaction is started by the addition of enzyme ([E]: 1.0 nM human Lung Tryptase; Cortex Biochem CP3033). Data is collected over a period of 30 min. and the initial rate of substrate hydrolysis (Vo (mOD/min)) is calculated. Inhibition is calculated by comparing to wells […] (vehicle) and IC50s are determined using a four parameters fit logistics model.

| IC50 | Compound |
| --- | --- |
| 4000 nM | N-[[4-[(aminoiminomethyl)amino]phenyl]methyl]-N-[1-[[(E)-2-(4-chlorophenyl)ethenyl]sulfonyl]-3-pyrrolidinyl]-4-[(diaminomethylene)amino]-benzamide [Compound 24] |
| 600 nM | NC(N)=Nc1ccc(C(=O)NC2CCN(S(=O)(=O)/C=C/c3ccc(Cl)cc3)C2)cc1 (stereo not shown) [Compound 26, N-[1-[[(E)-2-(4-chlorophenyl)ethenyl]sulfonyl]-3-pyrrolidinyl]-4-[(diaminomethylene)amino]-benzamide] |
| 700 nM | COC(=O)c1cc(CN(C(=O)c2ccc(N=C(N)N)cc2)C2CCN(S(=O)(=O)/C=C/c3ccc(Cl)cc3)C2)ccc1O (stereo not shown) [Compound 25, 5-[[[1-[[(E)-2-(4-chlorophenyl)ethenyl]sulfonyl]-3-pyrrolidinyl][4-[(diaminomethylene)amino]benzoyl]amino]methyl]-2-hydroxy-benzoic acid methyl ester] |
| 900 nM | NC(N)=Nc1ccc(C(=O)N(Cc2ccc(O)cc2)C2CCN(S(=O)(=O)/C=C/c3ccc(Cl)cc3)C2)cc1 (stereo not shown) [Compound 2, N-[1-[[(E)-2-(4-chlorophenyl)ethenyl]sulfonyl]-3-pyrrolidinyl]-4-[(diaminomethylene)amino]-N-[(4-hydroxyphenyl)methyl]-benzamide] |
